Data on 32 compounds can be found in ChEMBL document CHEMBL1152225, “Optimization of a series of potent and selective ketone histone deacetylase inhibitors” (Bioorg Med Chem Lett, 2008).

In one series the test system is HeLa. Put plainly: Antiproliferative activity against human HeLa cells after 72 hrs by celltiter-blue viability assay. It is filed as functional, cell-based. In general terms: Resazurin is reduced to fluorescent resorufin, in cell work by metabolically active cells.
Series [1] in a line: Metabolic stability in rat liver microsomes assessed as intrinsic clearance. The series is classed as ADME, Microsome.
The target in a further series is Histone deacetylase 1 (Homo sapiens, UniProt Q13547).
The target in a further series is Histone deacetylase 3 (Homo sapiens, UniProt O15379).
The target in series [2] is T1, Protein deacetylase HDAC6 (Homo sapiens, UniProt Q9UBN7).
T1 sequence (Q9UBN7 whole entry): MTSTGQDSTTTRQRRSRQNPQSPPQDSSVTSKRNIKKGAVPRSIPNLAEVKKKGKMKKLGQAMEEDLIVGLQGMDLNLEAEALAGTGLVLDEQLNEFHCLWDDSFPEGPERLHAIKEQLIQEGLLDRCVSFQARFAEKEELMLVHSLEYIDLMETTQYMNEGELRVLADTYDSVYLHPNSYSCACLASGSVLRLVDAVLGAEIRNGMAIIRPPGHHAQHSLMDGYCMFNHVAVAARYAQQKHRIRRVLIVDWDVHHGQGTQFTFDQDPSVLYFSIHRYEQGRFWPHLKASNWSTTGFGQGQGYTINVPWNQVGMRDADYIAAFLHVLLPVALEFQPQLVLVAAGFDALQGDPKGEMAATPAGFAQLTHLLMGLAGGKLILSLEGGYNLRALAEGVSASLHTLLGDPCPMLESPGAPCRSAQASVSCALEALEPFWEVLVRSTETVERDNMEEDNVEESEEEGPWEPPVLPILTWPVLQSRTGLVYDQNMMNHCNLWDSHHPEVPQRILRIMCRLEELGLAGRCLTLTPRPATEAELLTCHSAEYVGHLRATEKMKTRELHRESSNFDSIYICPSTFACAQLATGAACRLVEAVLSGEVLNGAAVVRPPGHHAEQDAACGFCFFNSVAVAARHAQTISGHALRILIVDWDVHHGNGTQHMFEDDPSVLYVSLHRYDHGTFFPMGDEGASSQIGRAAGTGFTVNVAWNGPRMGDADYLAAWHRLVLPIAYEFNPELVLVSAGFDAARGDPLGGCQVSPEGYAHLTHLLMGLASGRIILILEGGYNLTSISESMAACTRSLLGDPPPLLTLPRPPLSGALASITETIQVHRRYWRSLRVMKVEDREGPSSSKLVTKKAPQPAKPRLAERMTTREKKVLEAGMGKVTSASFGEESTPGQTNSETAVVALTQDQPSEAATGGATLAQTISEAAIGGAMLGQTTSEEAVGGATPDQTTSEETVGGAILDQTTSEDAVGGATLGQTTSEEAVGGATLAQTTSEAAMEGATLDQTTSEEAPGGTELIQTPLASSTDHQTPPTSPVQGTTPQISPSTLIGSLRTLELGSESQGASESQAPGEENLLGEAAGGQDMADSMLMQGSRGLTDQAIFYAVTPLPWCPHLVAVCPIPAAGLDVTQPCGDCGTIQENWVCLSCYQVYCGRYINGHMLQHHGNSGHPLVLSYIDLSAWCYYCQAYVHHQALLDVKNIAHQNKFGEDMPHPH

Chain of Histone deacetylase 1 (Q13547 whole entry): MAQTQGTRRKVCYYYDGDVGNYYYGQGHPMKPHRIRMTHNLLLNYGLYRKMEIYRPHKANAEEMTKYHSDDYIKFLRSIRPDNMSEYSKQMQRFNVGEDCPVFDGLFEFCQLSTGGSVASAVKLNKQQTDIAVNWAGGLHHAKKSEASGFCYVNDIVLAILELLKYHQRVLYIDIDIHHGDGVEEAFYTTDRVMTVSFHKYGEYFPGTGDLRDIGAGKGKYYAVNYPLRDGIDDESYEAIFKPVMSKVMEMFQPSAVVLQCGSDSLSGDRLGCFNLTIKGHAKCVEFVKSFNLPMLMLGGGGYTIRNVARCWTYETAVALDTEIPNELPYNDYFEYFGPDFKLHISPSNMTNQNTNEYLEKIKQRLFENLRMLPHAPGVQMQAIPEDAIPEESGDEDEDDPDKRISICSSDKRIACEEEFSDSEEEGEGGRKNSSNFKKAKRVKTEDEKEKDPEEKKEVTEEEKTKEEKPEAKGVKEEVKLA
Chain of Histone deacetylase 3 (O15379 whole entry): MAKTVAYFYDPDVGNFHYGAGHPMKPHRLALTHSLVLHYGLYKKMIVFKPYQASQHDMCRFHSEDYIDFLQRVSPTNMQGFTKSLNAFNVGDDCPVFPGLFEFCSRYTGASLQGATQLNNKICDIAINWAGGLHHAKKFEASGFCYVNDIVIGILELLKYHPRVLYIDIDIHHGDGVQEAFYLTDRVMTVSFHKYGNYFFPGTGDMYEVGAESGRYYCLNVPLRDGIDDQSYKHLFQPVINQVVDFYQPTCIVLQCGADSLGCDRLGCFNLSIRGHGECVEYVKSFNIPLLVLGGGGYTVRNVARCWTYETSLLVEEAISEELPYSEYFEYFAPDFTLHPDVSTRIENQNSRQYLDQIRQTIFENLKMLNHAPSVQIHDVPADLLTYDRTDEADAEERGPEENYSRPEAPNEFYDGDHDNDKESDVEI
Description for Histone deacetylase 1: Inhibition of human recombinant C-terminally flag tagged HDAC1

As usually defined, the IC50 is the point on the concentration scale where inhibition reaches its midpoint. Higher therefore signals lower potency. A word on the microsomal CLint: it is the capacity of the preparation to metabolise the compound, expressed as a volume cleared per time. On to `CC(=O)CCCCC[C@H](NC(=O)C1CCCN(C)C1)c1ncc(-c2ccccc2)[nH]1` (some centres not stated), for which the IC50 in the series on HeLa worked out at 0.4 µM; at Histone deacetylase 1, 0.22 µM. In addition, the intrinsic clearance (microsomal CLint) in series [1] amounted to 154 µL/min/mg.
As to `CC(=O)CCCCC[C@H](NS(=O)(=O)c1ccc(C#N)cc1)c1ncc(-c2ccccc2)[nH]1`, the figures for the half-inhibitory concentration (IC50) in the series with HeLa and against Histone deacetylase 1 were 1.2 µM and 0.18 µM, respectively.
The corresponding values for `CC(=O)CCCCC[C@H](NS(=O)(=O)c1cccc([N+](=O)[O-])c1)c1ncc(-c2ccccc2)[nH]1` are 1.3 µM and 0.055 µM.
Consider `CC(=O)CCCCC[C@H](NC(=O)C1CCN(C)CC1)c1ncc(-c2ccccc2)[nH]1`, for which the IC50 stood at 0.98 µM with HeLa and 0.25 µM at Histone deacetylase 1. In addition, the intrinsic clearance (microsomal CLint) in series [1] amounted to 68 µL/min/mg.
On to `CC(=O)CCCCC[C@H](NC(=O)c1cncs1)c1ncc(-c2ccccc2)[nH]1`, for which the IC50 in the series on HeLa was 0.53 µM; against Histone deacetylase 1, 0.14 µM.
Turning to `CC(=O)CCCCC[C@H](NC(=O)c1ccc2c(c1)OCCO2)c1ncc(-c2ccccc2)[nH]1`, the results for the IC50 with HeLa and at Histone deacetylase 1 were 1.1 µM and 0.3 µM, respectively.
`CC(=O)CCCCC[C@H](NC(=O)CCN1CC2CCC1C2)c1ncc(-c2ccccc2)[nH]1` (some centres not stated): the IC50 with HeLa came out at 1.7 µM; against Histone deacetylase 1, 0.22 µM. Further, the intrinsic metabolic clearance (microsomal CLint) in series [1] worked out at 143 µL/min/mg.
The corresponding values for `CC(=O)CCCCC[C@H](NC(=O)C1CCN(C)CC1)c1ncc(-c2ccc(-c3ccccc3)cc2)[nH]1` are 0.39 µM, 0.05 µM and 170 µL/min/mg.
In the case of `CC(=O)CCCCC[C@H](NC(=O)C1CCN(C)CC1)c1ncc(C(C)(C)C)[nH]1`, the values for the IC50 in the series on HeLa and on Histone deacetylase 1 were over 25 µM and over 5 µM, respectively.
The corresponding values for `CC(=O)CCCCC[C@H](NC(=O)C1CCN(C)CC1)c1ncc(-c2csc3ccccc23)[nH]1` are 1.3 µM and 0.18 µM.
Regarding `CC(=O)CCCCC[C@H](NC(=O)C1CCN(C)CC1)c1ncc(-c2ccc(Cl)cc2)[nH]1`, the 50% inhibitory concentration (IC50) in the series on HeLa was 0.68 µM; against Histone deacetylase 1 it was 0.075 µM. Further, in series [1], the microsomal CLint is 246 µL/min/mg.
Turning to `CC(=O)CCCCC[C@H](NC(=O)C1CCN(C)CC1)c1nc(C)c(-c2ccccc2)[nH]1`, the IC50 with HeLa is 14.7 µM; on Histone deacetylase 1, over 1.5 µM.
Regarding `CC(=O)CCCCC[C@H](NC(=O)C1CCN(C)CC1)c1ncc(-c2ccc(C#N)cc2)[nH]1`, the IC50 in the series on HeLa stood at 1.5 µM; against Histone deacetylase 1, 0.12 µM. For the same compound, the intrinsic clearance (microsomal CLint) in series [1] is 330 µL/min/mg.
For the compound `CC(=O)CCCCC[C@H](NC(=O)c1cccc(C#N)c1)c1ncc(-c2ccccc2)[nH]1`, the half-inhibitory concentration (IC50) in the series on HeLa was 1.1 µM; at Histone deacetylase 1, 0.16 µM.
The corresponding values for `CC(=O)CCCCC[C@H](NC(=O)C1CCN(C)CC1)c1ncc(-c2cccc(C#N)c2)[nH]1` are 1.54 µM and 0.48 µM.
In the case of `CC(=O)CCCCC[C@H](NC(=O)CN1CCN(C)CC1)c1ncc(-c2ccccc2)[nH]1`, the IC50 in the series on HeLa came to 2 µM; against Histone deacetylase 1, 0.5 µM. The intrinsic clearance (microsomal CLint) in series [1] came out at 64 µL/min/mg.
For the compound `CC(=O)CCCCC[C@H](NC(=O)C1CCN(C)CC1)c1ncc(-c2ccccc2Cl)[nH]1`, the IC50 in the series with HeLa came out at 1.3 µM; against Histone deacetylase 1 it was 0.18 µM.
The corresponding values for `COc1ccc(S(=O)(=O)N[C@@H](CCCCCC(C)=O)c2ncc(-c3ccccc3)[nH]2)cc1` are 1.4 µM and 0.25 µM.
Regarding `CCCC(=O)CCCCC[C@H](NC(=O)C1CCN(C)CC1)c1ncc(-c2ccc3ccccc3c2)[nH]1`, the half-maximal inhibitory concentration (IC50) in the series on HeLa was found to be 0.2 µM; at Histone deacetylase 1 it was 0.016 µM; at Histone deacetylase 3 it was 0.027 µM; in series [2] it was 1.4 µM.
`CC(=O)CCCCC[C@H](NC(=O)C1CCN(C)CC1)c1ncc(-c2ccc(F)cc2)[nH]1`: the 50% inhibitory concentration (IC50) in the series with HeLa was 2.2 µM; against Histone deacetylase 1, 0.38 µM. The intrinsic clearance (microsomal CLint) in series [1] was found to be 99 µL/min/mg.
In the same order, the values of `CC(=O)CCCCC[C@H](NC(=O)C1CCCCN1C)c1ncc(-c2ccccc2)[nH]1` (some centres not stated) are 2.7 µM, 0.71 µM and over 300 µL/min/mg.
`CC(=O)CCCCC[C@H](NS(=O)(=O)c1cccc(C#N)c1)c1ncc(-c2ccccc2)[nH]1`: the IC50 stood at 1.1 µM in the series on HeLa and 0.11 µM against Histone deacetylase 1.
For `CC(=O)CCCCC[C@H](NS(=O)(=O)c1ccc([N+](=O)[O-])c(F)c1)c1ncc(-c2ccccc2)[nH]1`, the IC50 worked out at 1 µM in the series with HeLa and 0.13 µM against Histone deacetylase 1.
In the case of `CC(=O)CCCCC[C@H](NC(=O)CCN1CCCCC1)c1ncc(-c2ccccc2)[nH]1`, the IC50 worked out at 1.3 µM in the series on HeLa and 0.19 µM against Histone deacetylase 1. The microsomal CLint in series [1] was over 300 µL/min/mg.
The corresponding values for `CC(=O)CCCCC[C@H](NC(=O)C1CCN(C)C1)c1ncc(-c2ccccc2)[nH]1` (some centres not stated) are 1.1 µM, 0.28 µM and 501 µL/min/mg.
With `CC(=O)CCCCC[C@H](NC(=O)C1CCN(C)CC1)c1ncc(-c2ccc(Br)cc2)[nH]1`, the half-maximal inhibitory concentration (IC50) came to 0.55 µM with HeLa and 0.1 µM on Histone deacetylase 1. The microsomal CLint in series [1] is over 300 µL/min/mg.
With `CC(=O)CCCCC[C@H](NS(=O)(=O)c1ccccc1C#N)c1ncc(-c2ccccc2)[nH]1`, the half-inhibitory concentration (IC50) is 7.3 µM in the series with HeLa and 0.27 µM against Histone deacetylase 1.
On to `CC(=O)CCCCC[C@H](NC(=O)C1CCN(C)CC1)c1ncc(-c2ccccn2)[nH]1`, for which the values for the 50% inhibitory concentration (IC50) with HeLa and at Histone deacetylase 1 were 9.7 µM and over 0.5 µM, respectively.
The corresponding values for `CC(=O)CCCCC[C@H](NC(=O)C1CCN(C)CC1)c1ncc(-c2ccsc2)[nH]1` are 3.2 µM and 0.24 µM.
For `CCC(=O)CCCCC[C@H](NC(=O)C1CCN(C)CC1)c1ncc(-c2ccc3ccccc3c2)[nH]1`, the IC50 came out at 0.21 µM in the series on HeLa, 0.012 µM against Histone deacetylase 1, 0.012 µM against Histone deacetylase 3 and 0.8 µM in series [2].
With `CCCCC(=O)CCCCC[C@H](NC(=O)C1CCN(C)CC1)c1ncc(-c2ccc3ccccc3c2)[nH]1`, the half-inhibitory concentration (IC50) in the series with HeLa was determined as 0.69 µM; against Histone deacetylase 1, 0.074 µM; at Histone deacetylase 3 it was 0.18 µM; in series [2], 3.5 µM.
Consider `CC(=O)CCCCC[C@H](NC(=O)C1CCN(C)CC1)c1ncc(-c2cccc(Cl)c2)[nH]1`, for which the figures for the IC50 in the series with HeLa and against Histone deacetylase 1 were 0.4 µM and 0.09 µM, respectively.
